Earlier results, collected in US11603416B2, “Method for preparation of derivatives of gram-positive bacteria surface capsular polysaccharide” (priority 2018, dated 2023).

System: children with severe ASD
Conditions: oral administration; effect disappears once the drug is discontinued

## CN[C@H](CC(C)C)C(=O)N[C@H]1C(=O)N[C@@H](CC(N)=O)C(=O)N[C@H]2C(=O)N[C@H]3C(=O)N[C@H](C(=O)N[C@H](C(=O)O)c4cc(O)cc(O)c4-c4cc3ccc4O)[C@H](O)c3ccc(c(Cl)c3)Oc3cc2cc(c3O[C@@H]2O[C@H](CO)[C@@H](O)[C@H](O)[C@H]2O[C@H]2C[C@](C)(N)[C@H](O)[C@H](C)O2)Oc2ccc(cc2Cl)[C@H]1O [vancomycin]
  child patients whose autism symptoms have been relieved for a short time: 80%
